Holding throughout (type): in vivo
Data set [1] is described as follows: ulcerogenic activity test (GI). The following applies: for TD50: in vivo. An excerpt: (The ulcerogenic ativity test is hereafter referred to as GI).
The test system of data set [2] is 2-phenyl-1,4-benzoquinone-induced writhing. The data set can be described thus: 2-phenyl-1,4-benzoquinone-induced writhing test in mice (PQW). To be noted: for ED50: Mus musculus, PQW, mice, analgesic. An excerpt: (The phenylquinone-induced writhing test is hereinafter referred to as PQW).
(In writhing tests, fewer writhes than in controls are read as antinociception.)

The subject of data set [3] is carrageenan-induced rat paw edema. Kind of data set: carrageenan-induced rat paw edema antiinflammatory assay (CPE). The following applies: for ED50: CPE, rat, antiinflammatory. An excerpt: (The carrageenan-induced rat paw edema test is hereinafter referred to as CPE).
For orientation: In the carrageenan paw model, swelling and tenderness develop within hours.

For orientation: ED50 means the dose that gives a 50% effect, or the effect in half of the subjects.

In data set [1], `O=C(O)Cc1ccc2c(c1)C(=O)c1sccc1CO2` [Compound 1, reference compound] showed a TD50 of 33.7 mg/kg. For the same compound, the ED50 in data set [2] was determined as 4.5 mg/kg; in data set [3] it was 3.4 mg/kg.
The corresponding values for `CC(C)OC(=O)Cc1ccc2c(c1)C(=O)c1sccc1CO2` [Compound 2, reference compound] are 21.6 mg/kg, 13.7 mg/kg and 1.6 mg/kg.
Take `O=C1c2cc(CCCCO)ccc2OCc2ccsc21` [Compound 3, 4-(4,10-Dihydro-10-oxothieno[3,2-c][1]benzoxepin-8-yl)butanol]: the TD50 in data set [1] is above 400 mg/kg. Further, the “incidence of ulcers / ulcerogenic activity” value in data set [1] (result in words, test animals, very high dosage levels) was “very low incidence of ulcers”. Also, the 50% effective dose (ED50) in data set [2] came to 7.4 mg/kg; in data set [3], 8.6 mg/kg. For the same compound, in data set [2] (result in words), the “activity in the PQW test” value is recorded as “exhibit activity”. Moreover, the “activity in the CPE test” value in data set [3] (result in words) is “exhibit activity”.

The values above are taken from US4496580A, “Oxothienobenzoxepins” (Hoechst-Roussel Pharmaceuticals Inc., priority 1981, dated 1985).
